EP0126817A1, “Suppressing of graft rejection in organ transplantation” (SHANKSVILLE CORPORATION N.V., priority 1983, dated 1984)

Key:
Assay type in all cases: cell-based
cytotoxic T lymphoblasts = test: Chromium release test: inhibition of tumor cell killing by cytotoxic T cells activated by interleukin 2; details: HeLa tumor cells labelled with radioactive chromium, 2 micrograms per ml of culture medium
Procedure: The following test is conducted to determine the inhibition of tumor cell killing capability of cytotoxic T cells activated by interleukin 2. Tumor cells from HeLa strain are labelled with radioactive chromium. The cells are washed and divided into two portions comprising the same cell number. Both portions are coincubated with cytotoxic T lymphoblasts for 18 hours. The culture medium contains IL-2. To one of the portions, at the beginning of the cocultivation, desialo GM1 is added'in concentration of 2 micrograms per ml of culture medium. The culture medium is decanted and the cells are pelleted in a centrifuge.

T cell blasts = test: In vitro T cell culture systems containing IL-2 (general finding)
From the text: This observation therefore leads to an in vivo procedure for modification of the cell mediated immunological graft rejection mechanism by blocking the formation of cytotoxic T cells at the level of the T effector cells and without destroying macrophage cells. Accordingly, the procedure of the present invention is highly advantageous as compared to presently available techniques for transplant protection, particularly by the use of immunosuppressive drugs. […] Therefore, such drugs will subject the patient to increased risk of infectious diseases. […] At the time of the graft transplantation therefore, the consequence of IL-2 and T cell blasts will allow the latter to proliferate until the IL-2 is consumed. This process generally requires several days. In contrast, the immunosuppressive blocking agents of this invention require less than 24 hours to effectively terminate cytotoxic T cell proliferation and to kill off any existing cytotoxic T cells.

[1] = tested on: Peripheral blood lymphocytes; test: T lymphocyte blast transformation in IL-2 containing culture medium pretreated with the ganglioside and dialysed; details: IL-2 medium RPMI 1640 treated with 5 micrograms per ml at 37°C for 30 minutes, dialysed 24 hours at 4°C; cells incubated 7 days
Procedure: This Example illustrates that asialo GM1 reacts with a soluble mediator for T lymphocyte blastogenesis inhibiting cytotoxic T cell formation. Peripheral blood lymphocytes are isolated by a density gradient centrifugation on ficoll hypaque and incubated 24 hours in the absence of serum proteins. Interleukin 2 containing tissue culture medium RPMI 1640 is treated with asialo GM1 in a concentration of 5 micrograms per ml of culture medium. The incubation with asialo GM1 is performed at 37°C for 30 minutes. Thereafter,the treated culture medium is dialysed against RPMI 1640 without supplements for 24 hours at a temperature of 4°C. The cells are incubated in the dialysed (and thus containing no free asialo GM1) culture medium for 7 days. For dialysis, the critical micellar concentration (CMC) of the ganglioside has to be regarded. If it is exceeded, dialysis will be impossible. CMC values for each ganglioside have been established, and are readily available.

## Gal(beta 1-3)GalNac(beta 1-4)Glc(beta 1-1)Cer [asialo GM1]
Cytotoxic T lymphoblasts; coincubated with cytotoxic T lymphoblasts for 18 hours, IL-2 medium
  % of Cr released, Target and T cell: 5.3%
Cytotoxic T lymphoblasts; control in place of T cells, 18 hours
  % of Cr released, Target and control: 3.8%
T cell blasts
  proliferation of T cell blasts in growing T cell lines: prevents proliferation of T cell blasts
[1]
  blast transformation of T cells: no blast transformation of T cells is observed
